Source: ChEMBL document CHEMBL1138929, “Development of peptidic dopamine transporter inhibitors via aromatic modification-mediated conformational restriction” (J Med Chem, 2006)
Starred links: 1 amine or outer side, 2 acyl side, 3 side chain; linkers in the order of their positions; H or OH if unused. Non-standard residues stand in square brackets, D forms with d. Residues, ends and D or L forms follow the SMILES beside them. *: point of attachment. X1 = O=C([C@H](Cc1ccc(O)c(Cc2ccccc2)c1)N[*:1])[*:2]; Bpa = N[C@@H](Cc1ccc(C(=O)c2ccccc2)cc1)C(=O)O; Bip = N[C@@H](Cc1ccc(-c2ccccc2)cc1)C(=O)O; 1Nal = N[C@@H](Cc1cccc2ccccc12)C(=O)O; 2Nal = N[C@@H](Cc1ccc2ccccc2c1)C(=O)O; Bn = c1ccc(C*)cc1

Experiments:
[1] = target: T1, Sodium-dependent dopamine transporter (Rattus norvegicus, UniProt P23977); experiment: Inhibition of rat DAT-mediated [3H]dopamine uptake in CHO cells; format: cell-based
Mus musculus [2] = experiment: Effect on place preference in BALB/c mouse at 20 mg/kg, sc measured as pre and procondition time difference; format: functional; conditions: route subcutaneous
Mus musculus [3] = experiment: Effect on cocaine-induced place preference in BALB/c mouse at 10 mg/kg, sc measured as pre and procondition time difference; format: functional; conditions: route subcutaneous
Mus musculus [4] = experiment: Effect on 10 mg/kg cocaine-induced place preference in BALB/c mouse at 10 mg/kg, sc measured as pre and procondition time difference; format: functional
[5] = target: Sodium-dependent serotonin transporter (Rattus norvegicus, UniProt P31652); experiment: Inhibition of rat SERT-mediated serotonin uptake in CHO cells; format: cell-based
[6] = target: Sodium-dependent noradrenaline transporter (Rattus norvegicus) (UniProt P31652); experiment: Inhibition of rat NET-mediated norepinephrine uptake in CHO cells; conditions: cho
[7] = target: Sodium- and chloride-dependent GABA transporter 1 (Mus musculus, UniProt P31648); experiment: Inhibition of mouse GAT1-mediated gamma-aminobutyric acid uptake in CHO cells; format: cell-based
[8] = target: T1, Sodium-dependent dopamine transporter; experiment: Inhibition of [3H]WIN-35428 binding to rat DAT expressed in D8 cells; format: cell-based
[9] = target: Sodium-dependent noradrenaline transporter, Rattus norvegicus; experiment: Inhibition of rat NET-mediated norepinephrine uptake in CHO cells
Mus musculus [10] = experiment: Effect on place preference in BALB/c mouse at 10 mg/kg measured as pre and procondition time difference; format: functional
[11] = substrate: CC(c1ccc(-c2ccc(C[C@H](N)C(=O)O)cc2)cc1)[C@H](N)C(=O)N[C@@H](Cc1ccc(O)cc1)C(=O)N[C@H](C(=O)N1CCC[C@H]1C(=O)N[C@H](C(=O)NCC(=O)O)[C@@H](C)OCc1ccccc1)[C@@H](C)O; conditions: Rattus norvegicus; D8; 600 nM
Description: Inhibition of rat DAT-mediated [3H]dopamine accumulation in D8 cells at 600 nM

[12] = substrate: CC(c1ccc(-c2ccc(C[C@H](N)C(=O)O)cc2)cc1)[C@H](N)C(=O)N[C@@H](Cc1ccc(O)cc1)C(=O)N[C@H](C(=O)N1CCC[C@H]1C(=O)N[C@H](C(=O)NCC(=O)O)[C@@H](C)OCc1ccccc1)[C@@H](C)O; conditions: Rattus norvegicus; D8; 250 nM
Description: Inhibition of rat DAT-mediated [3H]dopamine accumulation in D8 cells at 250 nM

Sequence of Sodium-dependent serotonin transporter (P31652 whole entry): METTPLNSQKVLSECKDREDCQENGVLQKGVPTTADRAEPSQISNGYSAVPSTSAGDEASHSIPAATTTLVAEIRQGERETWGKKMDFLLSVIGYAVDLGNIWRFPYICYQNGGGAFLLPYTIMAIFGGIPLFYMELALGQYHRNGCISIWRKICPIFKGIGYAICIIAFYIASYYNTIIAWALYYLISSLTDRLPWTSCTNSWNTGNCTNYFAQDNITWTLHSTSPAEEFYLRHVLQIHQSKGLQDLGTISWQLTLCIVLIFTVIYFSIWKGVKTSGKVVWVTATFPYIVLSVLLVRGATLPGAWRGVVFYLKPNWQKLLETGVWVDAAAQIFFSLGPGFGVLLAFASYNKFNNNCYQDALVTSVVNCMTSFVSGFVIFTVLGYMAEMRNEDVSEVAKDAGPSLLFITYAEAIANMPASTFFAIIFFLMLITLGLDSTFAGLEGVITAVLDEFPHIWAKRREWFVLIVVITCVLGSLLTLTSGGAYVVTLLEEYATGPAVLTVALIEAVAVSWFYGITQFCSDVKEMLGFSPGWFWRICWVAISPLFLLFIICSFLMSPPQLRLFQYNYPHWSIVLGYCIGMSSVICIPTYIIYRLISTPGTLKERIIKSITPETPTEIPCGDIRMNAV
Sequence of Sodium-dependent noradrenaline transporter (Rattus norvegicus) (P31652 whole entry, looked up): as the sequence (P31652 whole entry) above

## C[C@@H](O)[C@H](NC(=O)[C@H](CCCCN)NC(=O)[C@@H]1CCCN1C(=O)[C@@H](NC(=O)[C@H](Cc1ccc(O)cc1)NC(=O)[C@H](Cc1ccccc1)NC(=O)[C@@H](N)Cc1ccccc1)[C@@H](C)O)C(=O)O (H-FFYTPKT-OH)
[1]
  IC50: > 1000 µM

## C[C@@H](O)[C@H](NC(=O)[C@H](Cc1ccc(O)cc1)NC(=O)[C@@H](N)Cc1cccc2ccccc12)C(=O)N1CCC[C@H]1C(=O)N[C@@H](CCCCN)C(=O)N[C@H](C(=O)NCC(=O)O)[C@@H](C)OCc1ccccc1 (H-[1Nal]YTPKT(Bn)G-OH)
[1]
  IC50: 199 µM

## C[C@@H](O)[C@H](NC(=O)[C@H](Cc1ccc(O)cc1)NC(=O)[C@@H](N)Cc1ccc2ccccc2c1)C(=O)N1CCC[C@H]1C(=O)N[C@@H](CCCCN)C(=O)N[C@H](C(=O)NCC(=O)O)[C@@H](C)OCc1ccccc1 (H-[2Nal]YTPKT(Bn)G-OH)
[1]
  IC50: 184 µM

## C[C@H](NC(=O)[C@@H](N)Cc1ccc(-c2ccccc2)cc1)C(=O)N[C@H](C(=O)N1CCC[C@H]1C(=O)N[C@@H](CCCCN)C(=O)N[C@H](C(=O)NCC(=O)O)[C@@H](C)OCc1ccccc1)[C@@H](C)O (H-[Bip]ATPKT(Bn)G-OH)
[1]; cho
  IC50: 173 µM

## C[C@H](NC(=O)[C@H](Cc1ccc(O)cc1)NC(=O)[C@@H](N)Cc1ccc(-c2ccccc2)cc1)C(=O)N1CCC[C@H]1C(=O)N[C@@H](CCCCN)C(=O)N[C@H](C(=O)NCC(=O)O)[C@@H](C)OCc1ccccc1 (H-[Bip]YAPKT(Bn)G-OH)
[1]; cho
  IC50: 11 µM

## C[C@@H](O)[C@H](NC(=O)[C@H](CCCCN)NC(=O)[C@@H]1CCCN1C(=O)[C@@H](NC(=O)[C@H](Cc1ccc(O)cc1)NC(=O)[C@@H](N)Cc1ccc(-c2ccccc2)cc1)[C@@H](C)OCc1ccccc1)C(=O)NCC(=O)O (H-[Bip]YT(Bn)PKTG-OH)
[1]; cho
  IC50: 20 µM

## C[C@H](NC(=O)[C@@H](NC(=O)[C@H](Cc1ccc(O)cc1)NC(=O)[C@@H](N)Cc1ccc(-c2ccccc2)cc1)[C@@H](C)O)C(=O)N[C@@H](CCCCN)C(=O)N[C@H](C(=O)NCC(=O)O)[C@@H](C)OCc1ccccc1 (H-[Bip]YTAKT(Bn)G-OH)
[1]; cho
  IC50: > 1000 µM

## C[C@H](NC(=O)[C@@H](NC(=O)[C@H](Cc1ccc(O)cc1)NC(=O)[C@@H](N)Cc1ccc(-c2ccccc2)cc1)[C@@H](C)O)C(=O)N[C@H](C(=O)NCC(=O)O)[C@@H](C)OCc1ccccc1 (H-[Bip]YTAT(Bn)G-OH) [listing 1 of 2 here]
[1]; cho
  IC50: > 1000 µM

## C[C@H](NC(=O)[C@@H](NC(=O)[C@H](Cc1ccc(O)cc1)NC(=O)[C@@H](N)Cc1ccc(-c2ccccc2)cc1)[C@@H](C)O)C(=O)N[C@H](C(=O)NCC(=O)O)[C@@H](C)OCc1ccccc1 (H-[Bip]YTAT(Bn)G-OH) [listing 2 of 2 here]
Mus musculus [2]
  Activity: -14 s
Mus musculus [3]
  Activity: 209 s
Mus musculus [4]
  Activity: 200 s

## C[C@H](NC(=O)[C@@H]1CCCN1C(=O)[C@@H](NC(=O)[C@H](Cc1ccc(O)cc1)NC(=O)[C@@H](N)Cc1ccc(-c2ccccc2)cc1)[C@@H](C)O)C(=O)N[C@H](C(=O)NCC(=O)O)[C@@H](C)OCc1ccccc1 (H-[Bip]YTPAT(Bn)G-OH)
[1]; cho
  IC50: 1.7 µM

## C[C@@H](O)[C@H](NC(=O)[C@H](Cc1ccc(O)cc1)NC(=O)[C@@H](N)Cc1ccc(-c2ccccc2)cc1)C(=O)N1CCC[C@H]1C(=O)N[C@@H](CCCCN)C(=O)N[C@H](C(=O)NCC(=O)O)[C@@H](C)OCc1ccccc1 (H-[Bip]YTPKT(Bn)G-OH)
[1]; cho
  IC50: 1.8 µM

## C[C@@H](O)[C@H](NC(=O)[C@H](CCCCN)NC(=O)[C@@H]1CCCN1C(=O)[C@@H](NC(=O)[C@H](Cc1ccc(O)cc1)NC(=O)[C@@H](N)Cc1ccc(-c2ccccc2)cc1)[C@@H](C)O)C(=O)O (H-[Bip]YTPKT-OH)
[1]; cho
  IC50: 19 µM
[5]; cho
  IC50: > 1000 µM
[6]
  IC50: > 1 mM
[7]; cho
  IC50: > 1 mM

## C[C@@H](O)[C@H](NC(=O)[C@H](Cc1ccc(O)cc1)NC(=O)[C@@H](N)Cc1ccc(-c2ccccc2)cc1)C(=O)N1CCC[C@H]1C(=O)N[C@H](C(=O)NCC(=O)O)[C@@H](C)OCc1ccccc1 (H-[Bip]YTPT(Bn)G-OH) [listing 1 of 2 here]
[1]
  IC50: 0.3 µM
[5]
  IC50: 110 µM
[8]
  IC50: 494 nM
[9]
  IC50: 90 µM
[7]
  IC50: > 1 mM

## C[C@@H](O)[C@H](NC(=O)[C@H](Cc1ccc(O)cc1)NC(=O)[C@@H](N)Cc1ccc(-c2ccccc2)cc1)C(=O)N1CCC[C@H]1C(=O)N[C@H](C(=O)NCC(=O)O)[C@@H](C)OCc1ccccc1 (H-[Bip]YTPT(Bn)G-OH) [listing 2 of 2 here]
Mus musculus [2]
  Activity: -16 s
Mus musculus [3]
  Activity: 61 s
Mus musculus [4]
  Activity: 78 s

## C[C@@H](O)[C@H](NC(=O)[C@H](CCCCN)NC(=O)[C@@H]1CCCN1C(=O)[C@@H](NC(=O)[C@H](Cc1ccc(O)c(Cc2ccccc2)c1)NC(=O)[C@@H](N)Cc1ccc(-c2ccccc2)cc1)[C@@H](C)O)C(=O)O (H-[Bip][X1]TPKT-OH)
[1]; cho
  IC50: 10 µM

## C[C@@H](O)[C@H](NC(=O)[C@H](Cc1ccc(O)cc1)NC(=O)[C@@H](N)Cc1ccc(C(=O)c2ccccc2)cc1)C(=O)N1CCC[C@H]1C(=O)N[C@@H](CCCCN)C(=O)N[C@H](C(=O)NCC(=O)O)[C@@H](C)OCc1ccccc1 (H-[Bpa]YTPKT(Bn)G-OH)
[1]
  IC50: 239 µM

## COC(=O)[C@H]1[C@@H](OC(=O)c2ccccc2)C[C@@H]2CC[C@H]1N2C [COCAINE]
Mus musculus [10]
  Activity: 194 s

B1: Sodium-dependent dopamine transporter (Rattus norvegicus), P23977 (protein)
chain: MSKSKCSVGPMSSVVAPAKESNAVGPREVELILVKEQNGVQLTNSTLINPPQTPVEAQERETWSKKIDFLLSVIGFAVDLANVWRFPYLCYKNGGGAFLVPYLLFMVIAGMPLFYMELALGQFNREGAAGVWKICPVLKGVGFTVILISFYVGFFYNVIIAWALHYFFSSFTMDLPWIHCNNTWNSPNCSDAHASNSSDGLGLNDTFGTTPAAEYFERGVLHLHQSRGIDDLGPPRWQLTACLVLVIVLLYFSLWKGVKTSGKVVWITATMPYVVLTALLLRGVTLPGAMDGIRAYLSVDFYRLCEASVWIDAATQVCFSLGVGFGVLIAFSSYNKFTNNCYRDAIITTSINSLTSFSSGFVVFSFLGYMAQKHNVPIRDVATDGPGLIFIIYPEAIATLPLSSAWAAVFFLMLLTLGIDSAMGGMESVITGLVDEFQLLHRHRELFTLGIVLATFLLSLFCVTNGGIYVFTLLDHFAAGTSILFGVLIEAIGVAWFYGVQQFSDDIKQMTGQRPNLYWRLCWKLVSPCFLLYVVVVSIVTFRPPHYGAYIFPDWANALGWIIATSSMAMVPIYATYKFCSLPGSFREKLAYAITPEKDHQLVDRGEVRQFTLRHWLLL
[11]
  Km: 3.6 µM
[12]
  Km: 2.42 µM
